Source: patent US20260284011A1, “COMPOUNDS FOR RESTORING SUSCEPTIBILITY TO BETA-LACTAM ANTIBIOTICS” (UNIVERSITY OF NOTRE DAME DU LAC, priority 2023, published 2026)
Read-outs that look alike come from different tables or passages of the source.

Key:
MSSA and MRSA strains = assay: MIC potentiation, groups of strains; type: cell-based, Staphylococcus aureus; conditions: all 40 tested strains
Protocol: Potentiation of Activities of/36-Lactam Antibiotics. Compound 4 was evaluated as an adjuvant for β-lactam antibiotics, per design principles.
MICs were determined by the microdilution broth method following the Clinical & Laboratory Standards Institute (CLSI) guidelines. […] Experiments were performed in triplicate in 96-well plates with 5×10^5 CFU·mL^−1 of bacteria. […] The MIC was the concentration for which bacterial growth was not observed.

[1] = PK study, plasma and thighs; type: in vivo, mice; conditions: mouse; for Cmax at 4 h: sc, single subcutaneous dose 25 mg·kg^−1; for Cmax at 4 h / concentration at 8 h: mice
Protocol: Pharmacokinetics of Compound 4 and In Vivo Efficacy. We next evaluated the pharmacokinetics (PK) of compound 4 and its distribution to the thighs (sites of infection in the disease model) after a single subcutaneous dose at 25 mg·kg^−1 to mice.
(§1) Animals. Outbred 8-week-old female ICR mice for PK and neutropenic thigh infection studies were purchased from Envigo, Indianapolis, IN. The average weight of the mice for the PK study was 30 g (range 26.1 to 33.1 g); mice in the neutropenic thigh infection weights ranged from 24.2 to 37.7 g and were on average 29 g at the initiation of the study. Mice were housed in polycarbonate shoebox cages (for the PK study) or in disposable cages (for the infection studies) with ¼-inch corncob (The Andersons Inc., Maumee, OH) and Alpha-Dri (Shepherd Specialty Papers, Inc., Richland, MI) bedding with a 12-h light/dark cycle at 72° F. The animals were given food (Teklad 2918 irradiated extruded rodent diet) and water ad libitum. The food and water were autoclaved for the infection studies. All procedures were performed in accordance with and approved by the University of Notre Dame Institutional Animal Care and Use Committee.
PK study. Mice (n=15) were given a single subcutaneous dose of compound 4 at 25 mg·kg^−1 (100 μL of 7.5 mg-mL-1 solution in 20% DMSO/20% Tween-80/60% sterilized water). At 0.5, 1, 2, 4, and 8 h, mice were euthanized. Terminal blood was collected by cardiac puncture into heparinized (sodium heparin, Sigma-Aldrich, St. Louis, MO) syringes, and centrifuged (20,000×g at 4° C. for 15 min) to obtain plasma. A 60-μL aliquot of plasma was mixed with 60 μL of a 10 μg·mL^−1 solution of internal standard in acetonitrile. After centrifugation (17,000×g for 10 min), a 60-μL of the supernatant was taken for ultraperformance liquid chromatography (UPLC) analysis with UV detection.
Thighs were excised, weighed, and mixed with 100 μL of 10 μg·mL^−1 of internal standard in acetonitrile. Acetonitrile (900 μL) was added, and the mixture was homogenized on a Bullet blender (Next Advance, Inc., Averill Park, NY). After centrifugation at 17,000×g for 10 min, the supernatant was collected. The extraction was repeated two additional times. The combined supernatants were concentrated on a speed vac. The residue was dissolved in 100 μL of acetonitrile, and the mixture was centrifuged. A 60-μL aliquot of the supernatant was placed in an autosampler vial.
Plasma and thigh samples were analyzed on a Waters Acquity UPLC (Waters Corp., Milford, MA) coupled with a diode array detector with UV detection at 320-330 nm. A C18 Atlantis™ T3 column 2.1 i.d.×100 mm length 3 μm-particle size column was used at a flow rate of 0.5 mL/min. The gradient consisted of 0.5-min from 80% A/20% B to 65% A/35% B, 4.5-min to 25% A/75% B, 0.5-min to 65% A/35% B, 2-min to 80% A/20% B, where A=0.1% formic acid in water and B=0.1% formic acid in acetonitrile. Internal standard and compound 4 eluted at 4.2 and 4.6 min, respectively.
Calibration curves containing known concentrations of compound 4 (ranging from 0 to 200 μg·g^−1 tissue for thighs or 0 to 40 μg·mL^−1 for plasma) and internal standard in blank control thigh tissue or control plasma were prepared. Concentrations in the thighs and plasma were determined from the calibration curve regression parameters relative to internal standard.

MRSA FPR3757 = assay: Neutropenic thigh infection model; type: in vivo, mice; conditions: MEM 50 mg·kg^−1 ip, 4 20 mg·kg^−1 sc, thighs at 24 h
Protocol: (§2) The neutropenic thigh infection model in mice is commonly used to test efficacy of antibacterial agents. It is a highly standardized and reproducible assay that evaluates attenuation of bacterial load (and not animal survival) as the endpoint. All current clinical antibiotics are evaluated in this model. The direct injection of bacteria into the thighs of mice mimics a human soft-tissue infection. Prior to infection, mice are made neutropenic by injection of cyclophosphamide to cause the temporary depletion of neutrophils, dampening the immune response and making mice more susceptible to infection. […] The potentiation of activity of β-lactam antibiotics by compound 4 observed in vitro, translates to in vivo activity.
as §1
(§3) Neutropenic thigh infection studies. Mice (n=5 per group, total of 155 mice) were made neutropenic by injection of cyclophosphamide (Sigma-Aldrich, St. Louis, MO) intraperitoneally at 200 mg·kg^−1 (100 μL of a 60 mg·mL^−1 solution) on days −4 and −1. MRSA NRS21 and FPR3757 were grown in Tryptic Soy Agar and diluted to a final concentration of 10^6 CFU·mL^−1 in Brain-heart Infusion. On day 0, 100 μL of bacterial inoculum was injected intramuscularly into each of the right and left thighs. […] MEM was given intraperitoneally at 50 or 100 mg·kg^−1. […] MEM was given intraperitoneally at 50 or 100 mg·kg^−1 at 1 h, 5 h, 9 h, 13 h, 17 h, and 21 h after infection. […] MEM was prepared in 10% DMSO/20% Tween80/70% saline (0.9% NaCl in sterilized water). A vehicle group was included. At 24 h after infection, the mice were euthanized. Both thighs were dissected aseptically, weighed, and homogenized with two volumes of 1×PBS in a Bullet blender (Next Advance, Inc., Averill Park, NY) at 4° C., followed by centrifugation. […] The number of colonies were counted. […]

MRSA NRS21 = assay: Neutropenic thigh infection model; type: in vivo, mice; conditions: single agent (4 20 mg·kg^−1 or OXA 40 mg·kg^−1 sc at 1, 9, 17 h), 24 h
Protocol: as §2, §1, §3

## N#Cc1ccc2nc(SCB(O)O)n(Cc3ccc(C(F)(F)F)cc3C(F)(F)F)c2c1 [Compound 4, (((1-(2,4-bis(trifluoro-methyl)benzyl)-6-cyano-1H-benzo[d]imidazol-2-yl)thio)methyl)boronic acid]
MSSA and MRSA strains
  potentiation of the activity of MEM by 4: lowering MICs to below resistant level
[1]; plasma and thigh, plasma and thighs, 25 mg·kg^−1 sc, read-out: time at which maximum concentrations were achieved
  Tmax: 4 h
[1]; plasma, read-out: Maximum concentration in plasma
  Cmax at 4 h: 8500 ng/mL
[1]; plasma, 25 mg·kg^−1 sc, read-out: concentration at 8 h in plasma
  concentration at 8 h: 3900 ng/mL
[1]; thigh, read-out: Maximum concentration in thighs
  Cmax at 4 h: 28000 ng/mL
[1]; thigh, 25 mg·kg^−1 sc, read-out: concentration at 8 h in thighs
  concentration at 8 h: 20000 ng/mL
MRSA FPR3757
  log reduction compared to vehicle: 0.06 log
MRSA NRS21
  decrease in bacterial counts compared to vehicle-treated mice: did not show a statistically significant decrease in bacterial counts

## C[C@@H](O)[C@H]1C(=O)N2C(C(=O)O)=C(S[C@@H]3CN[C@H](C(=O)N(C)C)C3)[C@H](C)[C@H]12 [MEM, meropenem]
MRSA FPR3757
  log reduction compared to vehicle: 1.2 log

## Cc1onc(-c2ccccc2)c1C(=O)N[C@@H]1C(=O)N2[C@@H]1SC(C)(C)[C@@H]2C(=O)O [OXA, oxacillin]
MRSA NRS21
  decrease in bacterial counts compared to vehicle-treated mice: did not show a statistically significant decrease in bacterial counts
